Values quoted from earlier work as cited in patent publication US9775900B2, “Photodynamic diagnosis, formulations usable as photosensitizers for this purpose, method for the production and use thereof” (Sanochemia Pharmazeutika AG, priority 2015, dated 2017).

Details: pure hypericin

Cc1cc(O)c2c(=O)c3c(O)cc(O)c4c5c(O)cc(O)c6c(=O)c7c(O)cc(C)c8c1c2c(c34)c(c78)c65 [hypericin, 1,3,4,6,8,13-hexahydroxy-10,11-dimethylphenanthro (1,10,9,8-opqra) perylene-7,14-dione]
solubility in water: water-insoluble
